Read-outs that look alike come from different tables or passages of the source.
System: human umbilical vein endothelial cells HUVEC-C
Assay type: cell-based
Conditions: endothelial cells
Description: Microarray Analysis. […] Total RNA was isolated followed by reverse transcription. Purified double stranded cDNA was in vitro transcribed in the presence of biotinylated dUTP and dCTP, fragmented cRNA was hybridized to the HG-U95Av2 array (Affymetrix, Santa Clara, Calif.), followed by staining with streptavidin-phycoerythrin. Arrays were scanned and analyzed using GeneChip3.1 software. […] An average fold-induction for the three independent experiments was obtained by calculating the means of the logarithm of the individual fold-increases for each agonist.

For Thrombin, the “Induction (log 2), A1743606 wg51108.x1 Homo sapiens cDNA” value was −0.05 log 2, the “Induction (log 2), AB002450 Homo sapiens mRNA from chromosome 5q21-22, clone-A3-A” value was 0.45 log 2 and the “Induction (log 2), AB003184 Homo sapiens mRNA for ISLR” value was 0.05 log 2. The “Induction (log 2), AB012229 fructose-6-phosphate,2-kinase/fructose-2,6-bisphosphatase” value was 0.25 log 2, the “Induction (log 2), AF000421 TTF-1 interacting peptide 12 mRNA” value was 0.20 log 2 and the “Induction (log 2), AF015451 Homo sapiens Usurpin-beta mRNA” value was 0.45 log 2. The “Induction (log 2), AF022375 Homo sapiens vascular endothelial growth factor mRNA” value was 0.75 log 2, the “Induction (log 2), AF024710 Homo sapiens vascular endothelial growth factor (VEGF) mRNA” value was 0.90 log 2 and the “Induction (log 2), AF042083 BH3 interacting domain death agonist (BID) mRNA” value was 0.20 log 2. The “Induction (log 2), AF094481 trinucleotide repeat DNA binding protein p20-CGGBP (CGGBP) gene” value was 0.50 log 2, the “Induction (log 2), AF095154 Homo sapiens C1q-related factor mRNA” value was 0.10 log 2 and the “Induction (log 2), AF098462 Homo sapiens stanniocalcin-related protein mRNA” value was 1.00 log 2. The “Induction (log 2), AJ000480 Homo sapiens mRNA for C8FW phosphoprotein” value was 1.15 log 2, the “Induction (log 2), Cluster Incl U88629 Human RNA polymerase II elongation factor ELL2” value was 0.70 log 2 and the “Induction (log 2), Cluster Incl X66360 H.sapiens mRNA PCTAIRE-2 for serine/threonine protein kinase” value was 0.35 log 2. For the same substance, the “Induction (log 2), D29990 Human mRNA for cationic amino acid transporter 2” value was 0.75 log 2, the “Induction (log 2), D38449 Human mRNA for G protein-coupled receptor” value was 0.10 log 2 and the “Induction (log 2), D49817 6-phosphofructo-2-kinase/fructose-2, 6-bisphosphatase mRNA” value was 0.20 log 2. The “Induction (log 2), D78579 Homo sapiens mRNA for neuron derived orphan receptor” value was 1.55 log 2, the “Induction (log 2), J04102 Human erythroblastosis virus oncogene homolog 2 (ets-2) mRNA” value was 0.50 log 2 and the “Induction (log 2), L07261 Human alpha adducin mRNA” value was 0.10 log 2. For the same substance, the “Induction (log 2), L19871 Human activating transcription factor 3 (ATF3) mRNA” value was 1.10 log 2, the “Induction (log 2), L38487 Human estrogen receptor-related protein (hERRa1) mRNA” value was 0.10 log 2 and the “Induction (log 2), M14648 Human cell adhesion protein (vitronectin) receptor alpha subunit mRNA” value was 0.60 log 2. For the same substance, the “Induction (log 2), M19481 Human follistatin gene” value was 1.30 log 2, the “Induction (log 2), M22489 Human bone morphogenetic protein 2A (BMP-2A) mRNA” value was 0.90 log 2 and the “Induction (log 2), M28130 Human interleukin 8 (IL8) gene” value was 0.40 log 2. For the same substance, the “Induction (log 2), M29039 Human transactivator (jun-B) gene” value was 0.60 log 2, the “Induction (log 2), M36820 Human cytokine (GRO-beta) mRNA” value was 0.35 log 2 and the “Induction (log 2), M59964 Human stem cell factor mRNA” value was 0.75 log 2. The “Induction (log 2), M64349 Human cyclin D (cyclin D1) mRNA” value was 0.00 log 2, the “Induction (log 2), M96995 epidermal growth factor receptor-binding protein GRB2 (EGFRBP-GRB2) mRNA” value was 0.05 log 2 and the “Induction (log 2), Neurofibromatosis 2 Tumor Suppressor” value was 0.55 log 2. For the same substance, the “Induction (log 2), Tyrosine Phosphatase, Epsilon” value was 1.40 log 2, the “Induction (log 2), U08015 HumanNF-ATc mRNA” value was 0.55 log 2 and the “Induction (log 2), U12471 Human thrombospondin-1 gene” value was 0.70 log 2. The “Induction (log 2), U12767 Human mitogen induced nuclear orphan receptor (MINOR) mRNA” value was 1.15 log 2, the “Induction (log 2), U15932 Human dual-specificity protein phosphatase mRNA” value was 0.60 log 2 and the “Induction (log 2), U18671 Human Stat2 gene” value was 0.05 log 2. The “Induction (log 2), U20816 Human nuclear factor kappa-B2 (NF-KB2) gene” value was 0.70 log 2, the “Induction (log 2), U23070 Human putative transmembrane protein (nma) mRNA” value was 1.10 log 2 and the “Induction (log 2), U25997 Homo sapiens stanniocalcin precursor (STC) mRNA” value was 1.10 log 2. For the same substance, the “Induction (log 2), U33838 Human NF-kappa-B p65delta3 mRNA” value was 0.10 log 2, the “Induction (log 2), U42391 Human myosin-IXb mRNA” value was −0.15 log 2 and the “Induction (log 2), U65093 Human msg1-related gene 1 (mrg1) mRNA” value was 0.95 log 2. The “Induction (log 2), U72066 Homo sapiens CtBP interacting protein CtIP (CtIP) mRNA” value was 0.70 log 2, the “Induction (log 2), U76368 Human cationic amino acid transporter-2A (ATRC2) mRNA” value was 0.75 log 2 and the “Induction (log 2), U83981 Homo sapiens apoptosis associated protein (GADD34) mRNA” value was 0.50 log 2. For the same substance, the “Induction (log 2), U88629/FEATURE Human RNA polymerase II elongation factor ELL2” value was 0.75 log 2, the “Induction (log 2), W28170 43a12 Homo sapiens cDNA” value was 0.15 log 2 and the “Induction (log 2), W28257 44c1 Homo sapiens cDNA” value was 0.20 log 2. For the same substance, the “Induction (log 2), X02469 Human mRNA for p53 cellular tumor antigen” value was −0.10 log 2, the “Induction (log 2), X14787 Human mRNA for thrombospondin” value was 0.40 log 2 and the “Induction (log 2), X14798 Human DNA for c-ets-1 proto-oncogene” value was 0.75 log 2. The “Induction (log 2), X16706 Human fra-2 mRNA” value was 0.50 log 2, the “Induction (log 2), X51345 Human jun-B mRNA for JUN-B protein” value was 0.75 log 2 and the “Induction (log 2), X51435 Human PRDII-BF1 gene for a DNA-binding protein” value was 0.85 log 2. The “Induction (log 2), X66360/FEATURE H.sapiens mRNA PCTAIRE-2 for serine/threonine protein kinase” value was 0.65 log 2, the “Induction (log 2), X68277 H.sapiens CL 100 mRNA for protein tyrosine phosphatase” value was 1.75 log 2 and the “Induction (log 2), X69086 H.sapiens mRNA for utrophin” value was 0.60 log 2. For the same substance, the “Induction (log 2), X69699 H.sapiens Pax8 mRNA” value was 0.10 log 2, the “Induction (log 2), X98248 H.sapiens mRNA for sortilin” value was −0.15 log 2 and the “Induction (log 2), Z12173 H.sapiens GNS mRNA encoding glucosamine-6-sulphatase” value was 0.60 log 2. The “Induction (log 2), Z12830 H.sapiens mRNA for SSR alpha subunit” value was 0.40 log 2, the “Induction (log 2), Z23115 H.sapiens bc1-xL mRNA” value was 0.10 log 2 and the “Induction (log 2), Z29083 H.sapiens 5T4 gene for 5T4 Oncofetal antigen” value was 0.10 log 2. The “Induction (log 2), Z48579 H.sapiens mRNA for disintegrin-metalloprotease (partial)” value was 0.20 log 2, the “Induction (log 2), D13540 Homo sapiens SH-PTP3 mRNA for protein-tyrosine phosphatase” value (first entry (r8)) was 0.65 log 2 and the “Induction (log 2), W28616 49b9 Homo sapiens cDNA” value (first entry (r15)) was 0.30 log 2. For the same substance, the “Induction (log 2), W28616 49b9 Homo sapiens cDNA” value (second entry (r30)) was −0.05 log 2 and the “Induction (log 2), D13540 Homo sapiens SH-PTP3 mRNA for protein-tyrosine phosphatase” value (second entry (r54)) was 0.40 log 2.
